Assay results published in the NIST ThermoML archive (doi:10.1016/j.jct.2015.12.025).
Several values for one entry are separate records, joined by “and”; a condition that tells them apart may be missing. Identical values can stand only once.

Columns and labels:
[1] = 102 kPa, Liquid, Vibrating tube method
[2] = refractive index (Na D-line) (dimensionless); details: 102 kPa, Liquid, Standard Abbe refractometry
[3] = xn = mol fraction of the nth substance listed; details: 102 kPa, Liquid, Vibrating tube method
[4] = refractive index (Na D-line) (dimensionless); xn = mol fraction of the nth substance listed; details: 102 kPa, Liquid, Standard Abbe refractometry

C[Si]1(CCC(F)(F)F)O[Si](C)(CCC(F)(F)F)O[Si](C)(CCC(F)(F)F)O1 (stereo not drawn)
Details	mass density, 308.15 K [kg/m3]	mass density, 313.15 K [kg/m3]	mass density, 318.15 K [kg/m3]	mass density, 323.15 K [kg/m3]	refractive index, 308.15 K	refractive index, 313.15 K	refractive index, 318.15 K	refractive index, 323.15 K
[1]	1236.63	1230.05	1223.55	1216.99	–	–	–	–
[2]	–	–	–	–	1.36011	1.35808	1.35609 and 1.35608	1.35407

C[Si]1(CCC(F)(F)F)O[Si](C)(CCC(F)(F)F)O[Si](C)(CCC(F)(F)F)O1 (stereo not drawn) + CC(C)(C)c1ccccc1
x1 = 1
Details	mass density, 308.15 K [kg/m3]	mass density, 313.15 K [kg/m3]	mass density, 318.15 K [kg/m3]	mass density, 323.15 K [kg/m3]	refractive index, 308.15 K	refractive index, 313.15 K	refractive index, 318.15 K	refractive index, 323.15 K
[3]	1236.63	1230.05	1223.55	1216.99	–	–	–	–
[4]	–	–	–	–	1.36011	1.35808	1.35609	1.35407

CC(C)(C)c1ccccc1 [(1,1-dimethylethyl)benzene]
Details	mass density, 298.15 K [kg/m3]	mass density, 308.15 K [kg/m3]	mass density, 313.15 K [kg/m3]	mass density, 318.15 K [kg/m3]	mass density, 323.15 K [kg/m3]	refractive index, 298.15 K	refractive index, 308.15 K	refractive index, 313.15 K	refractive index, 318.15 K	refractive index, 323.15 K
[1]	862.28	854.12	849.98	845.87	841.72	–	–	–	–	–
[2]	–	–	–	–	–	1.49009	1.48509	1.48256	1.48007	1.47754

COc1ccccc1 [anisole]
Details	mass density, 298.15 K [kg/m3]	mass density, 308.15 K [kg/m3]	mass density, 313.15 K [kg/m3]	mass density, 318.15 K [kg/m3]	mass density, 323.15 K [kg/m3]	refractive index, 298.15 K	refractive index, 308.15 K	refractive index, 313.15 K	refractive index, 318.15 K	refractive index, 323.15 K
[1]	989.32	980.04	975.25	970.52	965.73	–	–	–	–	–
[2]	–	–	–	–	–	1.5146	1.50865	1.50604	1.50341	1.50073

COc1ccccc1 [anisole] + C[Si]1(CCC(F)(F)F)O[Si](C)(CCC(F)(F)F)O[Si](C)(CCC(F)(F)F)O1
x2 = 0
Details	mass density, 308.15 K [kg/m3]	mass density, 313.15 K [kg/m3]	mass density, 318.15 K [kg/m3]	mass density, 323.15 K [kg/m3]	refractive index, 308.15 K	refractive index, 313.15 K	refractive index, 318.15 K	refractive index, 323.15 K
[3]	980.04	975.25	970.52	965.73	–	–	–	–
[4]	–	–	–	–	1.50865	1.50604	1.50341	1.50073

CCc1ccccc1 [ethylbenzene]
Details	mass density, [1] [kg/m3]	refractive index, [2]
298.15 K	862.58	1.49301
303.15 K	–	1.4903
308.15 K	853.71	1.4876
313.15 K	849.29	1.48491
318.15 K	844.7	1.48217
323.15 K	840.28	1.47944

CCc1ccccc1 [ethylbenzene] + C[Si]1(CCC(F)(F)F)O[Si](C)(CCC(F)(F)F)O[Si](C)(CCC(F)(F)F)O1
x2 = 0
Details	mass density, 308.15 K [kg/m3]	mass density, 313.15 K [kg/m3]	mass density, 318.15 K [kg/m3]	mass density, 323.15 K [kg/m3]	refractive index, 308.15 K	refractive index, 313.15 K	refractive index, 318.15 K	refractive index, 323.15 K
[3]	853.71	849.29	844.7	840.28	–	–	–	–
[4]	–	–	–	–	1.4876	1.48491	1.48217	1.47944

O=[N+]([O-])c1ccccc1 [nitrobenzene]
Details	mass density, [1] [kg/m3]	refractive index, [2]
298.15 K	1198.2	1.54992
303.15 K	1193.25	1.54746
308.15 K	1188.17	1.545
313.15 K	1183.21	1.5425
318.15 K	1178.24	1.54005
323.15 K	1173.26	1.53757

O=[N+]([O-])c1ccccc1 [nitrobenzene] + C[Si]1(CCC(F)(F)F)O[Si](C)(CCC(F)(F)F)O[Si](C)(CCC(F)(F)F)O1
x2 = 0
Details	mass density, 308.15 K [kg/m3]	mass density, 313.15 K [kg/m3]	mass density, 318.15 K [kg/m3]	mass density, 323.15 K [kg/m3]	refractive index, 308.15 K	refractive index, 313.15 K	refractive index, 318.15 K	refractive index, 323.15 K
[3]	1188.17	1183.21	1178.24	1173.26	–	–	–	–
[4]	–	–	–	–	1.545	1.5425	1.54005	1.53757
